From US12552766B2, “Pesticidally active azole amide compounds” (SYNGENTA CROP PROTECTION AG, priority 2019, dated 2026)

Legend:
Type in all cases: in vivo
[1] = tested on: Diabrotica Balteata (Corn Root Worm); test: Example B1: Diabrotica balteata, spray on maize sprouts; details: 96 h, application rate of 200 ppm, L2 larvae, 4 days after infestation, read-out: control in at least one of the two categories (mortality or growth inhibition)
Outline: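 Read-out is mortality plus growth inhibition relative to untreated controls, assessed 4 days after infestation. Sprouts resting on agar are sprayed with aqueous solutions derived from 10′000 ppm DMSO stocks and left to dry before L2 larvae (6 to 10 per well) are added.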

[2] = tested on: Spodoptera littoralis (Egyptian Cotton Leaf Worm); test: Example B10: Spodoptera littoralis, uptake by lettuce roots from agar; details: 144 h, test rate of 12.5 ppm, eggs, 6 days after infestation, read-out: control in at least one of the three categories (mortality, anti-feedant, or growth inhibition)
Description: Test compounds were applied by pipette from 10′000 ppm DMSO stock solutions into 24-well plates and mixed with agar. Lettuce seeds were placed onto the agar and the multi well plate was closed by another plate which contained also agar. After 7 days the compound was absorbed by the roots and the lettuce grew into the lid plate. The lettuce leaves were then cut off into the lid plate. Spodoptera eggs were pipetted through a plastic stencil onto a humid gel blotting paper and the lid plate was closed with it. The samples were assessed for mortality, anti-feedant effect and growth inhibition in comparison to untreated samples 6 days after infestation.

[3] = tested on: Plutella xylostella (Diamondback Moth); test: Example B13: Plutella xylostella, artificial diet, 96-well; details: 216 h, application rate of 500 ppm, eggs/L1 larvae, 9 days after infestation
Experimental: 96-well microtiter plates containing artificial diet were treated with aqueous test solutions, prepared from 10′000 ppm DMSO stock solutions, by a liquid handling robot. After drying, eggs (˜30 per well) were infested onto a netted lid which was suspended above the diet. The eggs hatch and L1 larvae move down to the diet. The samples were assessed for mortality 9 days after infestation.

[4] = tested on: Spodoptera littoralis (Egyptian Cotton Leaf Worm); test: Example B9: Spodoptera littoralis, spray on cotton leaf discs; details: foliar, 72 h, application rate of 200 ppm, L1 larvae, 3 days after infestation, read-out: control in at least one of the three categories (mortality, anti-feedant effect, or growth inhibition)
Outline: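 Leaf discs on agar; spray, aqueous dilution of 10′000 ppm DMSO stock; dry; 5 L1 larvae/disc. Read at 3 d post-infestation: mortality, antifeedant, growth inhibition vs untreated. Control = ≥1 category above untreated.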

[5] = tested on: Plutella xylostella (Diamond Back Moth); test: Example B5: Plutella xylostella, artificial diet, 24-well; details: 192 h, application rate of 200 ppm, eggs, 8 days after infestation, read-out: control in at least one of the two categories (mortality or growth inhibition)
Experimental: 24-well microtiter plates with artificial diet were treated with aqueous test solutions prepared from 10′000 ppm DMSO stock solutions by pipetting. After drying, Plutella eggs were pipetted through a plastic stencil onto a gel blotting paper and the plate was closed with it. The samples were assessed for mortality and growth inhibition in comparison to untreated samples 8 days after infestation.

[6] = tested on: Chilo suppressalis (Striped Rice Stemborer); test: Example B4: Chilo suppressalis, artificial diet; details: 144 h, application rate of 200 ppm, L2 larvae, 6 days after infestation, read-out: control in at least one of the three categories (mortality, anti-feedant effect, or growth inhibition)
Outline: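 First, artificial diet was treated with aqueous solutions prepared from 10'000 ppm DMSO stocks; second, after drying, L2 larvae (6-8/well) were added; third, effects were assessed at 6 days against untreated controls, counting control when any of three categories was higher.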

[7] = tested on: Euschistus heros (Neotropical Brown Stink Bug); test: Example B2: Euschistus heros, spray on soybean leaves; details: 120 h, application rate of 200 ppm, N2 nymphs, 5 days after infestation, read-out: control in at least one of the two categories (mortality or growth inhibition)
Experimental: Soybean leaves on agar in 24-well microtiter plates were sprayed with aqueous test solutions prepared from 10′000 ppm DMSO stock solutions. After drying the leaves were infested with N2 nymphs. The samples were assessed for mortality and growth inhibition in comparison to untreated samples 5 days after infestation.

[8] = tested on: Tetranychus urticae (Two-Spotted Spider Mite); test: Example B14: Tetranychus urticae, feeding/contact activity; details: 192 h
Experimental: Bean leaf discs on agar in 24-well microtiter plates were sprayed with aqueous test solutions prepared from 10′000 ppm DMSO stock solutions. After drying the leaf discs were infested with a mite population of mixed ages. The samples were assessed for mortality on mixed population (mobile stages) 8 days after infestation.

[9] = tested on: Myzus persicae (Green Peach Aphid); test: Example B6: Myzus persicae, feeding/contact activity; details: 144 h, application rate of 200 ppm, mixed ages, 6 days after infestation
Experimental: Sunflower leaf discs were placed onto agar in a 24-well microtiter plate and sprayed with aqueous test solutions prepared from 10′000 ppm DMSO stock solutions. After drying, the leaf discs were infested with an aphid population of mixed ages. The samples were assessed for mortality 6 days after infestation.

CC(c1nc(Br)nn1-c1ccc(C#N)cn1)N(C)C(=O)c1cc(C(F)(F)F)cc(C(F)(F)F)c1 (stereo not shown) [Compound P12, N-[1-[5-bromo-2-(5-cyano-2-pyridyl)-1,2,4-triazol-3-yl]ethyl]-N-methyl-3,5-bis(trifluoromethyl) benzamide]
≥ 80%: percent control (mortality or growth inhibition) at 200 ppm [1] | percent control (mortality, anti-feedant effect or growth inhibition) at 12.5 ppm [2] | mortality at 500 ppm [3] | percent control (mortality, anti-feedant effect or growth inhibition) at 200 ppm [4] | percent control (mortality or growth inhibition) at 200 ppm [5] | percent control (mortality, anti-feedant effect or growth inhibition) at 200 ppm [6] | percent control (mortality or growth inhibition) at 200 ppm [7]

CC(NC(=O)c1cc(OC(F)F)cc(C(F)(F)F)c1)c1nc(Br)nn1-c1ccc(OCC(F)F)cn1 (stereo not shown) [Compound P16, N-[1-[5-bromo-2-[5-(2,2-difluoroethoxy)-2-pyridyl]-1,2,4-triazol-3-yl]ethyl]-3-(difluoromethoxy)-5-(trifluoromethyl) benzamide]
≥ 80%: percent control (mortality or growth inhibition) at 200 ppm [1] | mortality at 200 ppm [8] | mortality at 500 ppm [3] | percent control (mortality, anti-feedant effect or growth inhibition) at 200 ppm [4] | percent control (mortality or growth inhibition) at 200 ppm [5] | percent control (mortality, anti-feedant effect or growth inhibition) at 200 ppm [6]

CC(NC(=O)c1cc(Br)cc(C(F)(F)F)c1)c1nc(Br)nn1-c1ccc(OCC(F)F)cn1 (stereo not shown) [Compound P35, 3-bromo-N-[1-[5-bromo-2-[5-(2,2-difluoroethoxy)-2-pyridyl]-1,2,4-triazol-3-yl]ethyl]-5-(trifluoromethyl) benzamide]
≥ 80%: percent control (mortality or growth inhibition) at 200 ppm [1] | mortality at 500 ppm [3] | mortality at 200 ppm [9] | percent control (mortality, anti-feedant effect or growth inhibition) at 200 ppm [4] | percent control (mortality or growth inhibition) at 200 ppm [5] | percent control (mortality, anti-feedant effect or growth inhibition) at 200 ppm [6]
